Experimental findings from patent US4207318A, “Novel imidazobenzoxazines” (Roussel Uclaf, priority 1977, dated 1980) are described below.

Molecules are shown by their SMILES. Like-named read-outs stand apart in the source and are kept apart here.

In this test the test system is Passive cutaneous anaphylaxis. Briefly: Passive cutaneous anaphylaxis (PCA) in rats. In kind it is in vivo. The conditions noted are these: Rattus norvegicus, read-out: ED50 (dose of drug giving 50% inhibition), dosed immediately prior to challenge, male rats, ovalbumen antigen. As to the method:
Passive cutaneous anaphylaxis (PCA) in rats
The following compounds were tested for their physiological activity in the test: methyl 8-chloro-4H-imidazo-[2,1-c][1,4]-benzoxazine-2-carboxylate (compound A), methyl 8-methyl-4H-imidazo-[2,1-c][1,4]-benzoxazine-2-carboxylate (compound B), 8-chloro-4H-imidazo-[2,1-c][1,4]-benzoxazine-2-carboxylic acid (compound C), 7-methyl-4H-imidazo-[2,1-c][1,4]-benzoxazine-2-carboxylic acid (compound D), 8-chloro-7-methyl-4H-imidazo-[2,1-c][1,4]-benzoxazine-2-carboxylic acid (compound E), 6-methoxy-4H-imidazo-[2,1-c][1,4]-benzoxazine-2-carboxylic acid (compound F) and 8-methyl-4H-imidazo-[2,1-c][1,4]-benzoxazine-2-carboxylic acid (compound G).
Cutaneous anaphylaxis was induced in rats by intradermal (ID) sensitization with antiserum followed three days later by systemic challenge with antigen. Evans blue dye injected with the antigen is used as a marker to assess the severity of the local response. Anti-allergic drugs inhibit this reaction. This method has been described by OVARY (1962) "Passive Cutaneous Anaphylaxis in Allergology" Page 358-367 Ed. Brown: Pergamon Press. Animals: -male rats weighing 180-220 grams are used in groups of seven.
Preparation of Antigen for Sensitization (Alum precipitated ovalbumen)
1. Wash 120 grams of Al(OH)3 gel in 140 ml of saline (use of a macerater facilitates mixing).
2. Centrifuge at 3,000 rpm for about 10 minutes.
3. Resuspend the precipitate with 300 ml of albumen egg powder (1.3 mg/ml) in saline and allow to stand for 30 minutes.
4. Centrifuge at 3,000 rpm for 10 minutes.
5. Weigh the wet precipitate and to each gram weight add 1 ml of saline. Store in refrigerator (Quantity sufficient for 60 rats for a 3 day sensitization program).
Preparation of Antiserum (anti-ovalbumen)
1 ml of the alum precipitated ovalbumen was injected subcutaneously into rats weighing 180-200 grams on days 0,2,4. The rats were bled on day 14 either by cardiac puncture or via the dorsal abdominal aorta. Equal quantities of serum from each animal were pooled and thoroughly mixed and 2 ml aliquots were stored at -20° C. in plastic tubes.
The antiserum for sensitization was diluted so that an ID injection of 0.1 ml into control animals would give an average score of a single spot of between 2.0-3.5 using 5 point scoring system.
(A) SENSITIZATION: The rats were anaesthetized Nembutal (40-60 mg/kg i.p) and were then sensitized by four ID injections (0.1 ml each) on their shaved backs. The animals were then left for a period of three days to develop sensitization.
(B) […]: The sensitized rats were dosed orally or intraveneously with the drug immediately prior to intraveneous challenge via the superficial penile vein with 1 ml of an antigen/Evans blue mixture (1 mg albumen egg powder in 0.5 ml saline plus 0.5 ml of 1% Evans blue). The injections were speeded up by using an automatic 1 ml self-filling glass syringe. The "challenged" rats were killed after 30 minutes, (usually pithed) and their skin on the dorsal surface was removed. The degree and area of blueing, proportional to the anaphylactic reaction was assessed on a five point scoring system.
1. Total scores for sites 1,2,3 and 4=X
2. Mean value of X for each group=X
X c=X for control group [formula] 5.
ED50 values for the compounds tested in the passive cutaneous anaphylaxis screen (in rats) are as follows: […]

A word on the ED50: it is the dose that gives a 50% effect, or the effect in half of the subjects. In the case of `COC(=O)c1cn2c(n1)COc1ccc(Cl)cc1-2` [A, methyl 8-chloro-4H-imidazo-[2,1-c][1,4]-benzoxazine-2-carboxylate], under “P.O. (oral)”, the ED50 was 2.79 mg/kg. In the case of `COC(=O)c1cn2c(n1)COc1ccc(C)cc1-2` [B, methyl 8-methyl-4H-imidazo-[2,1-c][1,4]-benzoxazine-2-carboxylate], the ED50 (P.O. (oral)) is 1.46 mg/kg. On to `O=C(O)c1cn2c(n1)COc1ccc(Cl)cc1-2` [C, 8-chloro-4H-imidazo-[2,1-c][1,4]-benzoxazine-2-carboxylic acid], for which the median effective dose (ED50) is, setting by setting: (I.V. (intravenous)) 0.42 mg/kg; (P.O. (oral)) 0.13 mg/kg.

With `Cc1ccc2c(c1)OCc1nc(C(=O)O)cn1-2` [D, 7-methyl-4H-imidazo-[2,1-c][1,4]-benzoxazine-2-carboxylic acid], the ED50 (I.V. (intravenous)) came to 0.39 mg/kg and the ED50 (P.O. (oral)) amounted to 4 mg/kg. As for `Cc1cc2c(cc1Cl)-n1cc(C(=O)O)nc1CO2` [E, 8-chloro-7-methyl-4H-imidazo-[2,1-c][1,4]-benzoxazine-2-carboxylic acid], the ED50 (I.V. (intravenous)) was found to be 0.75 mg/kg. The same measure, in the same setting: the result for `COc1cccc2c1OCc1nc(C(=O)O)cn1-2` [F, 6-methoxy-4H-imidazo-[2,1-c][1,4]-benzoxazine-2-carboxylic acid] reads 3.27 mg/kg.

Consider `Cc1ccc2c(c1)-n1cc(C(=O)O)nc1CO2` [G, 8-methyl-4H-imidazo-[2,1-c][1,4]-benzoxazine-2-carboxylic acid], for which the ED50 (I.V. (intravenous)) was found to be 0.35 mg/kg and the ED50 (P.O. (oral)) was 0.37 mg/kg.
